The target in data set [1] is T1, human GC-A (Homo sapiens, UniProt P16066).
T1 construct: expressed in transfected cells; host or cells: CHO cells
T1 sequence (P16066 33-1061): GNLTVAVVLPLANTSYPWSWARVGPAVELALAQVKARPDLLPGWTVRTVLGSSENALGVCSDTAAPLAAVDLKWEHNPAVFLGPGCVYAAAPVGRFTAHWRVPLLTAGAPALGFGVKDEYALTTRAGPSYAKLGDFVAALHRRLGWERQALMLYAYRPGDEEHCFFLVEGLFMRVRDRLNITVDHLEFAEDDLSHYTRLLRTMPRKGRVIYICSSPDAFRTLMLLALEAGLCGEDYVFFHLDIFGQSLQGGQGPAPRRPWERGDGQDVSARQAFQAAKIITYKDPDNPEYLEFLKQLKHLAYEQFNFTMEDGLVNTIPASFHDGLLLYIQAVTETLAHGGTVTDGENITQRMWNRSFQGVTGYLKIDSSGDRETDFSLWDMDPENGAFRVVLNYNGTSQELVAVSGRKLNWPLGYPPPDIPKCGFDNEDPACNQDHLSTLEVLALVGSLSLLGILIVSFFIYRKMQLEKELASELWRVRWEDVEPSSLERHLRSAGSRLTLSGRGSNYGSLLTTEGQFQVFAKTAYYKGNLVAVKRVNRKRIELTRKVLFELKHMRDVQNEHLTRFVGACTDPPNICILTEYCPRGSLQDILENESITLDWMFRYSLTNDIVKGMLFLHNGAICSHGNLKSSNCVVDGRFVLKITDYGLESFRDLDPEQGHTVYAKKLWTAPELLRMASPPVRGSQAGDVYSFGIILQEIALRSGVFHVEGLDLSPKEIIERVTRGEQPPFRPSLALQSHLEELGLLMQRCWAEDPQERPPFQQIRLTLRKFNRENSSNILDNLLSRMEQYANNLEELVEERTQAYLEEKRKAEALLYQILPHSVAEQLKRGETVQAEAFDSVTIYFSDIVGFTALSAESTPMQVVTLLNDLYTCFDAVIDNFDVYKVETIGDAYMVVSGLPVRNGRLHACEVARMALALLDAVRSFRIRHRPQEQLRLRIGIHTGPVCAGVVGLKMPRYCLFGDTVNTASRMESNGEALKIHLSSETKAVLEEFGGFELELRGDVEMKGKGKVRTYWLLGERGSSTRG
As to the kind of experiment: cGMP elevating activity in CHO/human GC-A cells (Test Example 1). It is filed as cell-based. The gist of the method: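 CHO cells stably expressing human GC-A, pre-incubated 10 min at room temperature in 1.6 mM IBMX/KRB, then exposed to test peptide 15 min in CO2 incubator. Lysate cGMP measured by HTRF. Activity (T/C) scaled so solvent-only = 0 and 1 nM ANP = 1.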

Data set [2] can be described thus: Detection of test substance in rat plasma by LC-MS/MS (Test Example 3). It is filed as in vivo. Particulars: rat plasma, 100 nmol/kg i.v., LC-MS/MS; time at which the test substance was finally detected. The method, boiled down: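 Jugular blood drawn before and 15–240 min after dosing; plasma spiked with stable-isotope hANP internal standard and AcOH/water/DMSO solvent, then passed through a 50K filter with the 3K-retained fraction analysed by LC-MS/MS. Value is the last time point at which test substance was detected.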

Here are results for 1 compound from patent publication US10947289B2, “Glyco-modified atrial natriuretic peptide” (priority 2013, dated 2021).

SMILES strings stand for the structures.

The compound `CC[C@H](C)[C@@H]1NC(=O)[C@H](CCCNC(=N)N)NC(=O)[C@H](CC(=O)O)NC(=O)[C@H](CCSC)NC(=O)[C@H](CCCNC(=N)N)NC(=O)CNC(=O)CNC(=O)[C@H](Cc2ccccc2)NC(=O)[C@@H](NC(=O)[C@H](CO)NC(=O)[C@H](CO)NC(=O)[C@H](CCCNC(=N)N)NC(=O)[C@H](CCCNC(=N)N)NC(=O)[C@H](CC(C)C)NC(=O)[C@H](CO)NC(=O)CNC(=O)[C@H](CSC2CC(=O)N(CCC(=O)NCCO[C@@H]3O[C@H](CO)[C@@H](O[C@@H]4O[C@H](CO)[C@@H](O[C@@H]5O[C@H](CO[C@H]6O[C@H](CO)[C@@H](O)[C@H](O)[C@@H]6O[C@@H]6O[C@H](CO)[C@@H](O[C@@H]7O[C@H](CO[C@]8(C(=O)O)C[C@H](O)[C@@H](NC(C)=O)[C@H]([C@H](O)[C@H](O)CO)O8)[C@H](O)[C@H](O)[C@H]7O)[C@H](O)[C@H]6NC(C)=O)[C@@H](O)[C@H](O[C@H]6O[C@H](CO)[C@@H](O)[C@H](O)[C@@H]6O[C@@H]6O[C@H](CO)[C@@H](O[C@@H]7O[C@H](CO[C@]8(C(=O)O)C[C@H](O)[C@@H](NC(C)=O)[C@H]([C@H](O)[C@H](O)CO)O8)[C@H](O)[C@H](O)[C@H]7O)[C@H](O)[C@H]6NC(C)=O)[C@@H]5O)[C@H](O)[C@H]4NC(C)=O)[C@H](O)[C@H]3NC(C)=O)C2=O)NC(=O)CNC(=O)[C@H](CSC2CC(=O)N(CCC(=O)NCCO[C@@H]3O[C@H](CO)[C@@H](O[C@@H]4O[C@H](CO)[C@@H](O[C@@H]5O[C@H](CO[C@H]6O[C@H](CO)[C@@H](O)[C@H](O)[C@@H]6O[C@@H]6O[C@H](CO)[C@@H](O[C@@H]7O[C@H](CO[C@]8(C(=O)O)C[C@H](O)[C@@H](NC(C)=O)[C@H]([C@H](O)[C@H](O)CO)O8)[C@H](O)[C@H](O)[C@H]7O)[C@H](O)[C@H]6NC(C)=O)[C@@H](O)[C@H](O[C@H]6O[C@H](CO)[C@@H](O)[C@H](O)[C@@H]6O[C@@H]6O[C@H](CO)[C@@H](O[C@@H]7O[C@H](CO[C@]8(C(=O)O)C[C@H](O)[C@@H](NC(C)=O)[C@H]([C@H](O)[C@H](O)CO)O8)[C@H](O)[C@H](O)[C@H]7O)[C@H](O)[C@H]6NC(C)=O)[C@@H]5O)[C@H](O)[C@H]4NC(C)=O)[C@H](O)[C@H]3NC(C)=O)C2=O)NC(=O)CNC(=O)[C@H](CSC2CC(=O)N(CCC(=O)NCCO[C@@H]3O[C@H](CO)[C@@H](O[C@@H]4O[C@H](CO)[C@@H](O[C@@H]5O[C@H](CO[C@H]6O[C@H](CO)[C@@H](O)[C@H](O)[C@@H]6O[C@@H]6O[C@H](CO)[C@@H](O[C@@H]7O[C@H](CO[C@]8(C(=O)O)C[C@H](O)[C@@H](NC(C)=O)[C@H]([C@H](O)[C@H](O)CO)O8)[C@H](O)[C@H](O)[C@H]7O)[C@H](O)[C@H]6NC(C)=O)[C@@H](O)[C@H](O[C@H]6O[C@H](CO)[C@@H](O)[C@H](O)[C@@H]6O[C@@H]6O[C@H](CO)[C@@H](O[C@@H]7O[C@H](CO[C@]8(C(=O)O)C[C@H](O)[C@@H](NC(C)=O)[C@H]([C@H](O)[C@H](O)CO)O8)[C@H](O)[C@H](O)[C@H]7O)[C@H](O)[C@H]6NC(C)=O)[C@@H]5O)[C@H](O)[C@H]4NC(C)=O)[C@H](O)[C@H]3NC(C)=O)C2=O)NC(C)=O)CSSC[C@@H](C(=O)N[C@@H](CC(N)=O)C(=O)N[C@@H](CO)C(=O)N[C@@H](Cc2ccccc2)C(=O)N[C@@H](CCCNC(=N)N)C(=O)N[C@@H](Cc2ccc(O)cc2)C(=O)O)NC(=O)CNC(=O)[C@H](CC(C)C)NC(=O)CNC(=O)[C@H](CO)NC(=O)[C@H](CCC(N)=O)NC(=O)[C@H](C)NC(=O)CNC1=O` (some centres unmarked) [Compound 2-15, [(SG-)Cys-Gly]3-hANP(1-28)] registered an EC50 in data set [1] of 3.1 nM. Also, the “Maximum time of detection after administration” value in data set [2] was 1.5 h.

The term EC50 denotes the concentration needed to bring the measured effect to its halfway point. Read a high EC50 as lower potency in that assay.
